The target of one series is activated p38α (Homo sapiens, UniProt Q16539). Briefly: Kinase assay (p38 MAP kinase assay), ATF2 phosphorylation ELISA. The series is classed as biochemical. The conditions noted are these: 100 μM ATP, 10 ng activated p38α, ATF2 substrate; read-out: Inhibition of p 38 MAP kinase assay IC50. As to the method: Kinase Assay (p38 MAP Kinase Assay)
Microtiter plates were coated with 50 μl of ATF2 solution (20 μg/ml) at 37° C. for one hour. After washing with water three times, 50 μl of kinase mixture (50 mM tris-HCl 10 mM MgCl2, 10 mM β-glycerol phosphate, 10 μg/ml BSA, 1 mM DTT, 100 μM ATP, 100 μM Na3VO4, 10 ng of activated p38α) with or without inhibitor were put into the wells and incubated at 37° C. for 1 hour. After washing three times, the plates were incubated with […] at 37° C. for one hour. After washing again three times, a goat anti-rabbit IgG labeled with alkaline phosphatase was added at 37° C. for one hour (in order to retain the antibody phosphorylated protein-substrate complex). After washing three times, the alkaline phosphatase substrate solution (3 mM 4-NPP, 50 mM NaHCO3, 50 mM MgCl2, 100 μl/well) was added at 37° C. for 1.5 hours. […] The IC50 values are calculated.
For orientation: An ELISA detects its analyte on a solid surface through an enzyme-linked reagent.

The subject of the next series is TNF-α. Put plainly: tissue or blood. Particulars: Homo sapiens, 4 h, read-out: Inhibition of TNF-α (whole blood) IC50. As to the method: (§1) The compounds or compositions of the invention can be administered to a mammal (human or animal) in a dose of about 0.5 mg to 100 mg per kg of body weight per day. They can be given in a single dose or in a plurality of doses. […] Pharm. Pharm. Med. Chem. 333, Suppl. 1, 1-40, 2000.
(§2) In Vitro Test Method with Human Whole Blood
(§3) Samples of human potassium EDTA whole blood (400 μl each) are mixed with the test substance and preincubated at 37° C. in a CO2 incubator (5% CO2; 95% moisture-saturated air) for 15 min. The samples are then stimulated with 1 μg/ml LPS (E. coli 026:B6) in a CO2 incubator (5% CO2; 95% moisture-saturated air) at 37° C. for 4 hours. The reaction is stopped by placing the samples on ice, adding DPBS buffer and subsequently centrifuging at 1000.g for 15 min. The amount of IL-1β and TNFα in the plasma supernatant is then measured by means of an ELISA.

The subject of a further series is IL-1β. Briefly: tissue or blood. The conditions noted are these: Homo sapiens, 4 h, read-out: Inhibition of IL-1β (whole blood) IC50. On the procedure:
as §1, §2, §3

By pIC50 is commonly meant −log10 of the IC50, conventionally taken in molar units. The term melting point denotes the temperature of the solid-liquid transition.

pIC50: −log10 of the molar value.

activated p38α, sequence (Q16539 whole entry): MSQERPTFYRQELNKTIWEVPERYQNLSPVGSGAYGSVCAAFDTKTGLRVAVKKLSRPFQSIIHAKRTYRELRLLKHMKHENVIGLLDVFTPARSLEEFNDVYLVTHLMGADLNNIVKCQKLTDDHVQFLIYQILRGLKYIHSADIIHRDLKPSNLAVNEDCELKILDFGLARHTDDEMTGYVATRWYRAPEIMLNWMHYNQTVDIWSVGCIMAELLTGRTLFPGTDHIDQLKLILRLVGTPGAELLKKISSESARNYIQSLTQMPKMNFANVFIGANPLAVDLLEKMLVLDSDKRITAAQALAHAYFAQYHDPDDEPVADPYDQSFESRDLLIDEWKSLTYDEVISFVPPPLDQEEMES

In the case of “3-(2-Amino-4-fluorophenylamino)-6,11-dihydrodibenzo[b,e]oxepin-11-one [Example 24]”, the negative-log IC50 (pIC50) on activated p38α was 7.42.

Consider `Nc1ccccc1Nc1ccc2c(c1)SCc1ccccc1C2=O` [Example 4, 3-(2-Aminoanilino)-6,11-dihydrodibenzo[b,e]thiepin-11-one], for which the negative logarithm of the IC50 (pIC50) at activated p38α is 5.96. As to `Nc1ccccc1Nc1ccc2c(c1)OCc1ccccc1C2=O` [Example 5, 3-(2-Aminoanilino)-6,11-dihydrodibenzo[b,e]oxepin-11-one], the pIC50 on activated p38α is 6.52. On to `Nc1ccccc1Nc1ccc2c(c1)CCc1ccccc1C2=O` [Example 25, 2-(2-Aminophenylamino)-10,11-dihydrodibenzo[a,d]cycloheptan-5-one], for which the negative-log IC50 (pIC50) with TNF-α is 5.64; in the series on IL-1β, 5.74. For `COc1ccccc1Nc1ccc2c(c1)CCc1ccccc1C2=O` [Example 28, 2-(2-Methoxyphenylamino)-10,11-dihydrodibenzo[a,d]cyclohepten-5-one], the melting point worked out at 52.5 °C. Besides, at activated p38α, the pIC50 is 6.80.

Values taken from patent publication US20090105327A1, “Dibenzocycloheptane compounds and pharmaceuticals containing these compounds” (Merckle GMBH, priority 2005, published 2009).
